The values below come from US20250340563A1, “FUSED PYRIDAZINE DERIVATIVES AS NLRP3 INHIBITORS” (Takeda Pharmaceutical Company Limited, priority 2022, published 2025).

The term IC50 denotes the concentration needed to halve the response being measured.

Chain of NLRP3 inflammasome (Q96P20 whole entry): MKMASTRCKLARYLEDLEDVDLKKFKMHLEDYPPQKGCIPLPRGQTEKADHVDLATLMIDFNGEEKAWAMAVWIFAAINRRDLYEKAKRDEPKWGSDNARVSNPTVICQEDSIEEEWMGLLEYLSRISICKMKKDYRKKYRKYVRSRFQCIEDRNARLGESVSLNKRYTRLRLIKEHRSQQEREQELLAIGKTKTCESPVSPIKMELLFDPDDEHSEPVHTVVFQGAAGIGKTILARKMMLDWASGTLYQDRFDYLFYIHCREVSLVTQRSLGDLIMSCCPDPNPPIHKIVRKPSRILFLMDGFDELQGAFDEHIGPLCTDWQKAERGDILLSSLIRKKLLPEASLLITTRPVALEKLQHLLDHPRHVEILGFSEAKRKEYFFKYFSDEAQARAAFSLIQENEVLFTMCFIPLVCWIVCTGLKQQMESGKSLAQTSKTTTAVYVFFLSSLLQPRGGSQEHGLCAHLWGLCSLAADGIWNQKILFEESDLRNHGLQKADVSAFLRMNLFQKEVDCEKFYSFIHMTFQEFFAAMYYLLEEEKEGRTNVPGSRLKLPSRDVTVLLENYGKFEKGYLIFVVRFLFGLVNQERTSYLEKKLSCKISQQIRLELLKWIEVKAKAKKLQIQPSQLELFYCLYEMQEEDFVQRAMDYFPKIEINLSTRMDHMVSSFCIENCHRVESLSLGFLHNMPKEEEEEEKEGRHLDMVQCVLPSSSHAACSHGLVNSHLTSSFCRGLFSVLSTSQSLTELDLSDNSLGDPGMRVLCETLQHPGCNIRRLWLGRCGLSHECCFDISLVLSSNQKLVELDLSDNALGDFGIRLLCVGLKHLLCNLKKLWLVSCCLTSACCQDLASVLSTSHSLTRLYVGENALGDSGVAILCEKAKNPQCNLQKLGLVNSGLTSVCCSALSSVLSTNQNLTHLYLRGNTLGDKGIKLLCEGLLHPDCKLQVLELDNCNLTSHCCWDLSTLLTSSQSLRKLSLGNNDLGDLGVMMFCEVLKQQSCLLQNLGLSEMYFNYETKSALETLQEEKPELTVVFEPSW

The assay deals with NLRP3 inflammasome (Homo sapiens, UniProt Q96P20). Briefly: IL-1β assay in IFN-γ-differentiated, LPS-primed, ATP-activated THP-1 cells (ELISA). The format is cell-based. The note with it: 50 ng/mL LPS priming, 2.5 mM ATP activation, 2 hours. The gist of the method:
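THP-1 cells differentiated with 25 ng/mL IFN-γ for 24 h, then primed with 50 ng/mL LPS for 24 h in serum-free medium. After 30 min compound preincubation (1:3.16 dilution series), inflammasome activated with 2.5 mM ATP for 2 h at 37 °C. Supernatant IL-1β measured by ELISA; IC50 from logistic fit of % inhibition.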
(In an ELISA, binding on a coated surface is turned into a signal by an enzyme label.)
`COc1ccc(-c2nnc(N[C@@H]3CCCN(C)C3)c3cnccc23)c(F)c1` [Example 57, (R)-1-(2-fluoro-4-methoxyphenyl)-N-(1-methylpiperidin-3-yl)pyrido[3,4-d]pyridazin-4-amine] had an IC50 of 0.021 µM.

`CN1CC2CCCC(C1)C2Nc1nnc(-c2ccc(Cl)cc2)c2ccccc12` (stereo not shown) [Example 151, 4-(4-chlorophenyl)-N-(3-methyl-3-azabicyclo[3.3.1]nonan-9-yl)phthalazin-1-amine] came in with a half-inhibitory concentration (IC50) of 3.02 µM. This IC50 lies about 140-fold higher than the previous one.

In turn, `COC1CC(N2CCCC(Nc3nnc(-c4ccc(Cl)cc4)c4ccncc34)C2)C1` (stereo not shown) [Example 197, 1-(4-chlorophenyl)-N-(1-(3-methoxycyclobutyl)piperidin-3-yl)pyrido[3,4-d]pyridazin-4-amine] came in with an IC50 of 0.708 µM.

For `CN1CCC[C@@H](Nc2nnc(-c3ccccc3C(F)F)c3ccncc23)C1` [Example 91, (R)-1-(2-(difluoromethyl)phenyl)-N-(1-methylpiperidin-3-yl)pyrido[3,4-d]pyridazin-4-amine], inhibition was half-maximal at 0.307 µM (IC50).

As for `COc1ccc(-c2nnc(NC3CCCC(C)(O)C3)c3ccccc23)cc1` (stereo not shown) [Example 137, 3-((4-(4-methoxyphenyl)phthalazin-1-yl)amino)-1-methylcyclohexan-1-ol], the IC50 was determined as 3.8 µM.

In the case of `CC1(c2ccc(-c3nnc(Nc4cccc(O)c4)c4ccccc34)cc2)CC1` [Example 3, 3-((4-(4-(1-methylcyclopropyl)phenyl)phthalazin-1-yl)amino)phenol], the IC50 was 1.12 µM.

On to `OC1CC2(C1)CC(Nc1nnc(-c3ccc(Cl)cc3)c3ccccc13)C2` (stereo not shown) [Example 133, 6-((4-(4-chlorophenyl)phthalazin-1-yl)amino)spiro[3.3]heptan-2-ol], for which the IC50 is 0.468 µM.

In turn, `Oc1cccc(Nc2nnc(-c3cccc(C4CCC4)c3)c3ccccc23)c1` [Example 6, 3-((4-(3-cyclobutylphenyl)phthalazin-1-yl)amino)phenol] displayed a half-inhibitory concentration (IC50) of 2.88 µM. This IC50 is about 6.2-fold higher than that of the compound before.

In the case of `COc1ccc(-c2nnc(NC3CCCN(C)C3)c3cnn(C)c23)cc1` (stereo not shown) [Example 150, 7-(4-methoxyphenyl)-1-methyl-N-(1-methylpiperidin-3-yl)-1H-pyrazolo[3,4-d]pyridazin-4-amine], the IC50 is 0.325 µM. Compared with the last compound, the IC50 is about 8.9-fold lower.

For `COc1cc(Cl)ccc1-c1nnc(NC2CCCN(C)C2)c2ccncc12` (stereo not shown) [Example 48, 4-(4-chloro-2-methoxyphenyl)-N-(1-methylpiperidin-3-yl)pyrido[3,4-d]pyridazin-1-amine], the IC50 amounted to 3.09 µM. Compared with the last compound, the IC50 is about 9.5-fold higher.

The compound `CN1CCC[C@@H](Nc2nnc(-c3ccc4c(c3)OCCO4)c3ccncc23)C1` [Example 26, (R)-1-(2,3-dihydrobenzo[b][1,4]dioxin-6-yl)-N-(1-methylpiperidin-3-yl)pyrido[3,4-d]pyridazin-4-amine] displayed an IC50 of 0.603 µM. This IC50 is about 5.1-fold lower than that of the compound before.

In turn, `Clc1ccc(-c2nnc(NC3CCN(Cc4ccccc4)C3)c3ccccc23)cc1` (stereo not shown) [Example 158, N-(1-benzylpyrrolidin-3-yl)-4-(4-chlorophenyl)phthalazin-1-amine] registered an IC50 of 2.29 µM. Against the preceding compound, the IC50 is about 3.8-fold higher.

`Clc1ccc(-c2nnc(NC3CN4CCC3CC4)c3ccccc23)cc1` (stereo not shown) [Example 164, N-(4-(4-chlorophenyl)phthalazin-1-yl)quinuclidin-3-amine] displayed an IC50 of 0.372 µM.

Compound `CN1CCc2c(-c3ccc(Cl)cc3)nnc(NC3CCCN(C)C3)c2C1` (stereo not shown) [Example 101, 1-(4-chlorophenyl)-6-methyl-N-(1-methylpiperidin-3-yl)-5,6,7,8-tetrahydropyrido[3,4-d]pyridazin-4-amine] registered an IC50 of 0.804 µM.

Compound `Cc1nccc2c(NC3CCCN(C)C3)nnc(-c3ccc(Cl)cc3)c12` (stereo not shown) [Example 77, 4-(4-chlorophenyl)-5-methyl-N-(1-methylpiperidin-3-yl)pyrido[3,4-d]pyridazin-1-amine] registered an IC50 of 1.51 µM. This IC50 lies about 1.9-fold higher than the previous one.

The compound `COc1ccc(-c2nnc(N[C@@H]3CCCN(C)C3)c3c(C)nccc23)c(O)c1` [Example 78, (R)-5-methoxy-2-(5-methyl-4-((1-methylpiperidin-3-yl)amino)pyrido[3,4-d]pyridazin-1-yl)phenol] gave an IC50 of 0.183 µM.

Take `CC(C)(C)c1ccc(-c2nnc(Nc3cccc(O)c3)c3ccccc23)cn1` [Example 9, 3-((4-(6-(tert-butyl)pyridin-3-yl)phthalazin-1-yl)amino)phenol]: the IC50 turned out to be 1.66 µM.

In turn, `CN1CCCC(Nc2nnc(-c3ccc(Cl)cc3Cl)c3ccncc23)C1` (stereo not shown) [Example 51, 1-(2,4-dichlorophenyl)-N-(1-methylpiperidin-3-yl)pyrido[3,4-d]pyridazin-4-amine] showed a half-maximal inhibitory concentration (IC50) of 0.158 µM.

With `COc1ccc(-c2nnc(N[C@@H]3CCCN(C4CC4)C3)c3c2CCOC3)cc1` [Example 228, (R)—N-(1-cyclopropylpiperidin-3-yl)-1-(4-methoxyphenyl)-7,8-dihydro-5H-pyrano[3,4-d]pyridazin-4-amine], the midpoint of inhibition, the IC50, lay at 0.023 µM.

In the case of `CC1(O)CCCC(Nc2nnc(-c3ccc(Cl)cc3)c3ccccc23)C1` (stereo not shown) [Example 138, 3-((4-(4-chlorophenyl)phthalazin-1-yl)amino)-1-methylcyclohexan-1-ol], the IC50 was 1.11 µM.

`COc1ccc(-c2nnc(NC3(CN4CCC4)CC3)c3ccccc23)cc1` [Example 132, N-(1-(azetidin-1-ylmethyl)cyclopropyl)-4-(4-methoxyphenyl)phthalazin-1-amine]: half-maximal inhibition (IC50) required 3.89 µM.

As for `COc1ccc(-c2nnc(N[C@@H]3CCCN(C)C3)c3ccccc23)c(F)c1` [Example 53, (R)-4-(2-fluoro-4-methoxyphenyl)-N-(1-methylpiperidin-3-yl)phthalazin-1-amine], the IC50 is 0.04 µM. This IC50 is about 97-fold lower than that of the compound before.

Compound `COc1ccc(-c2nnc(NCC3CCCCN3C)c3ccccc23)cc1` (stereo not shown) [Example 130, 4-(4-methoxyphenyl)-N-((1-methylpiperidin-2-yl)methyl)phthalazin-1-amine] returned an IC50 of 3.89 µM.

`CN1CCC(Nc2nnc(-c3ccc(Cl)cc3)c3ccccc23)C1=O` (stereo not shown) [Example 109, 3-((4-(4-chlorophenyl)phthalazin-1-yl)amino)-1-methylpyrrolidin-2-one] displayed an IC50 of 4.9 µM.

`CN1C[C@H](F)C[C@@H](Nc2nnc(-c3ccc(Cl)cc3F)c3cnccc23)C1` [Example 183, 4-(4-chloro-2-fluorophenyl)-N-((3R,5R)-5-fluoro-1-methylpiperidin-3-yl)pyrido[3,4-d]pyridazin-1-amine]: 0.589 µM corresponded to half-maximal inhibition (IC50).

Take `O[C@]1(C(F)(F)F)C[C@@H](Nc2nnc(-c3ccc(Cl)cc3)c3ccccc23)C1` [Example 117, trans-3-((4-(4-chlorophenyl)phthalazin-1-yl)amino)-1-(trifluoromethyl)cyclobutan-1-ol]: the IC50 was 0.624 µM.

`Cc1ccc(-c2nnc(NC3CCCN(C)C3)c3ccccc23)cc1` (stereo not shown) [Example 15, N-(1-methylpiperidin-3-yl)-4-(p-tolyl)phthalazin-1-amine] returned a concentration for half-maximal inhibition (IC50) of 0.115 µM.

The compound `CN1C[C@H](F)C[C@@H](Nc2nnc(-c3ccc(Cl)cc3)c3cnccc23)C1` [Example 175, 4-(4-chlorophenyl)-N-((3R,5R)-5-fluoro-1-methylpiperidin-3-yl)pyrido[3,4-d]pyridazin-1-amine] displayed an IC50 of 0.589 µM.

With `COc1ccc(-c2nnc(N[C@@H]3CCCN(C)C3)c3cnccc23)cc1F` [Example 25, (R)-1-(3-fluoro-4-methoxyphenyl)-N-(1-methylpiperidin-3-yl)pyrido[3,4-d]pyridazin-4-amine], the IC50 came out at 0.199 µM.

In the case of `CN1CCCC(Nc2nnc(-c3cccc(Cl)c3)c3ccccc23)C1` (stereo not shown) [Example 17, 4-(3-chlorophenyl)-N-(1-methylpiperidin-3-yl)phthalazin-1-amine], the IC50 turned out to be 4.47 µM.

Regarding `O[C@]1(C(F)(F)F)CCC[C@H](Nc2nnc(-c3ccc(Cl)cc3)c3ccccc23)C1` [Example 115, (1R,3S)-3-((4-(4-chlorophenyl)phthalazin-1-yl)amino)-1-(trifluoromethyl)cyclohexan-1-ol], the IC50 is 2.19 µM.

With `CC(C)[C@@H]1CN(C)C[C@H]1Nc1nnc(-c2ccc(Cl)cc2)c2ccccc12` [Example 165, 4-(4-chlorophenyl)-N-((3S,4R)-4-isopropyl-1-methylpyrrolidin-3-yl)phthalazin-1-amine], 3.47 µM corresponded to half-maximal inhibition (IC50).

The compound `CN1CCCC(Nc2nnc(-c3ccc(C(F)F)nc3)c3ccccc23)C1` (stereo not shown) [Example 2, 4-(6-(difluoromethyl)pyridin-3-yl)-N-(1-methylpiperidin-3-yl)phthalazin-1-amine] displayed an IC50 of 5.25 µM.

In turn, `COc1cc(Cl)ccc1-c1nnc(NC2CCCN(C)C2)c2cnccc12` (stereo not shown) [Example 47, 1-(4-chloro-2-methoxyphenyl)-N-(1-methylpiperidin-3-yl)pyrido[3,4-d]pyridazin-4-amine] yielded an IC50 of 0.692 µM. Compared with the last compound, the IC50 is about 7.6-fold lower.

Take `CN1C[C@H](F)C[C@@H](Nc2nnc(-c3ccccc3O)c3c2CCOC3)C1` [Example 202, 2-(1-(((3R,5R)-5-fluoro-1-methylpiperidin-3-yl)amino)-7,8-dihydro-5H-pyrano[3,4-d]pyridazin-4-yl)phenol]: the IC50 turned out to be 0.21 µM.

`COc1ccc(-c2nnc(Nc3cccc(O)c3)c3ncccc23)cc1` [Example 198, 3-((5-(4-methoxyphenyl)pyrido[2,3-d]pyridazin-8-yl)amino)phenol] showed an IC50 of 4.38 µM.

`Cc1ccc(-c2nnc(Nc3cccc(O)c3)c3ccccc23)cc1` [Example 38, 3-((4-(p-tolyl)phthalazin-1-yl)amino)phenol] came in with a half-inhibitory concentration (IC50) of 1.12 µM. Against the preceding compound, the IC50 is about 3.9-fold lower.

`CC(C)(C)c1ccc(-c2nnc(Nc3cccc(O)c3)c3ccccc23)cc1` [Example 5, 3-((4-(4-(tert-butyl)phenyl)phthalazin-1-yl)amino)phenol] gave an IC50 of 1.44 µM.

As for `COC1(C)CC(Nc2nnc(-c3ccc(Cl)cc3)c3ccccc23)C1(C)C` (stereo not shown) [Example 135, 4-(4-chlorophenyl)-N-(3-methoxy-2,2,3-trimethylcyclobutyl)phthalazin-1-amine], inhibition was half-maximal at 4.57 µM (IC50).

Compound `CN1CCCC(Nc2nnc(-c3ccccc3Cl)c3ccccc23)C1` (stereo not shown) [Example 14, 4-(2-chlorophenyl)-N-(1-methylpiperidin-3-yl)phthalazin-1-amine] showed an IC50 of 2.95 µM.
